Experiments:
Assay in all cases: relative viability (nuclei count vs DMSO), 5 days (fraction); higher = more cells survive
[1] = compound: C1/C(=C\C2=CC=CS2)/C(=O)/C(=C/C3=CC=CS3)/C1 + COc1cccc2cc(-c3nc([C@H]4CC[C@H](C(=O)O)CC4)n4ncnc(N)c34)[nH]c12 [OSI-027] (partner 0.5 µM)
In short: (§1)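 A single step with final 0.05% Triton X-100, 1% formaldehyde and 1 ug/ml Hoechst fixed the cells and stained nuclei 5 days after treatment. Lung cancer cell lines in 1536-well plates had been treated by pin tool the day after seeding with one drug alone or a fixed anchor-drug dose plus five library-drug doses (not always all listed) in √10 steps, and nuclei were counted on 4× images. Relative viability is the ratio of nuclei in treated wells to nuclei in vehicle wells, taken as the median of duplicate plates.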

Lestaurtinib + OSI-027 = compound: C[C@]12O[C@H](C[C@]1(O)CO)n1c3ccccc3c3c4c(c5c6ccccc6n2c5c31)CNC4=O [Lestaurtinib] + COc1cccc2cc(-c3nc([C@H]4CC[C@H](C(=O)O)CC4)n4ncnc(N)c34)[nH]c12 [OSI-027] (partner 0.5 µM)
In short: as §1

TPCA-1 + AZD7762 = compound: C1=CC(=CC=C1C2=CC(=C(S2)NC(=O)N)C(=O)N)F [TPCA-1] + NC(=O)Nc1cc(-c2cccc(F)c2)sc1C(=O)N[C@H]1CCCNC1 [AZD7762] (partner 0.2 µM)
In short: as §1

[2] = compound: C[C@]12O[C@H](C[C@]1(O)CO)n1c3ccccc3c3c4c(c5c6ccccc6n2c5c31)CNC4=O [Lestaurtinib] + N=C(N)NC(=N)NCCc1ccccc1 [Phenformin] (partner 250 µM)
In short: as §1

Cell Line	relative viability ([1]; first compound 0.2 µM)	relative viability ([1]; first compound 0.6325 µM)	relative viability ([1]; first compound 2 µM)	relative viability ([1]; first compound 6.325 µM)	relative viability ([1]; first compound 20 µM)	relative viability (Lestaurtinib + OSI-027; first compound 0.005 µM)	relative viability (Lestaurtinib + OSI-027; first compound 0.01581 µM)	relative viability (Lestaurtinib + OSI-027; first compound 0.05 µM)	relative viability (Lestaurtinib + OSI-027; first compound 0.1581 µM)	relative viability (Lestaurtinib + OSI-027; first compound 0.5 µM)	relative viability (TPCA-1 + AZD7762; first compound 0.04 µM)	relative viability (TPCA-1 + AZD7762; first compound 0.1265 µM)	relative viability (TPCA-1 + AZD7762; first compound 0.4 µM)	relative viability (TPCA-1 + AZD7762; first compound 1.265 µM)	relative viability (TPCA-1 + AZD7762; first compound 4 µM)	relative viability ([2]; first compound 0.005 µM)	relative viability ([2]; first compound 0.01581 µM)	relative viability ([2]; first compound 0.05 µM)	relative viability ([2]; first compound 0.1581 µM)	relative viability ([2]; first compound 0.5 µM)
NCI-H2405	0.619	0.633	0.705	0.497	0.624	0.647	0.685	0.59	0.487	0.414	0.859	0.738	0.877	0.79	0.648	0.426	0.392	0.387	0.28	0.284
NCI-H2126	0.74	0.645	0.711	0.598	0.774	0.6	0.844	0.665	0.658	0.539	0.996	0.936	1.03	0.978	0.87	0.525	0.565	0.482	0.412	0.326
NCI-H1944	0.464	0.409	0.464	0.408	0.425	0.483	0.406	0.322	0.31	0.292	0.474	0.484	0.565	0.455	0.474	0.194	0.209	0.164	0.133	0.132
NCI-H2342	0.626	0.644	0.741	0.52	0.607	0.571	0.672	0.547	0.648	0.549	0.504	0.469	0.403	0.349	0.404	0.545	0.656	0.551	0.652	0.613
NCI-H358	0.807	0.801	0.914		0.651	0.658	0.629	0.285	0.232	0.0986	0.467	0.406	0.73	0.501	0.312	0.338	0.295	0.208	0.137	0.0849
NCI-H1734	0.584	0.668	0.741	0.519	0.593	0.678	0.571	0.368	0.362	0.187	0.558	0.504	0.604	0.639	0.374	0.385	0.391	0.255	0.208	0.18
A-427	0.481	0.465	0.491	0.445	0.442	0.473	0.402	0.257	0.233	0.146	0.881	0.801	0.89	0.811	0.624	0.339	0.3	0.23	0.225	0.149
RERF-LC-KJ	0.528	0.659	0.71	0.539	0.545	0.525	0.577	0.491	0.461	0.315	1.03	0.844	0.914	0.739	0.652	0.448	0.38	0.391	0.419	0.295
NCI-H727	0.716	0.58	0.975	0.592	0.582	0.614	0.675	0.525	0.698	0.498	0.596	0.68	0.497	0.701	0.698	0.475	0.655	0.648	0.515	0.298
LCLC-97TM1	0.503	0.605	0.627	0.428	0.486	0.547	0.42	0.125	0.215	0.182	0.231	0.237	0.223	0.164	0.217	0.47	0.442	0.403	0.325	0.2
BEN	0.258	0.275	0.352	0.288	0.282	0.463	0.313	0.3	0.298	0.196	0.677	0.665	0.9	1.08	0.505	0.292	0.316	0.267	0.237	0.196
LC-2-ad	0.817	0.941	0.984	0.708	0.785	0.892	0.783	0.506	0.483	0.304	0.883	0.803	0.837	0.83	0.221	0.554	0.772	0.561	0.385	0.26
ABC-1	0.645	0.583	0.647	0.426	0.498	0.505	0.65	0.342	0.456	0.175		0.606	0.935	0.836	0.945	0.251	0.252	0.243	0.199	0.166
NCI-H647	0.624	0.716	0.67	0.391	0.684	0.6	0.562	0.28	0.205	0.143	0.618	0.447	0.629	0.451	0.327	0.354	0.444	0.181	0.11	0.104
NCI-H1755	0.787	0.709	0.79	0.683	0.759	0.814	0.706	0.471	0.406	0.338	0.444	0.634	0.402	0.337	0.378	0.663	0.648	0.462	0.336	0.287
EPLC-272H	0.349	0.284	0.285	0.238	0.265	0.288	0.278	0.222	0.223	0.166	0.368	0.26	0.314	0.26	0.276	0.273	0.306	0.281	0.225	0.125

Cell Line	relative viability ([1]; first compound 0.2 µM)	relative viability ([1]; first compound 0.6325 µM)	relative viability ([1]; first compound 2 µM)	relative viability ([1]; first compound 6.325 µM)	relative viability ([1]; first compound 20 µM)	relative viability (Lestaurtinib + OSI-027; first compound 0.005 µM)	relative viability (Lestaurtinib + OSI-027; first compound 0.01581 µM)	relative viability (Lestaurtinib + OSI-027; first compound 0.05 µM)	relative viability (Lestaurtinib + OSI-027; first compound 0.1581 µM)	relative viability (Lestaurtinib + OSI-027; first compound 0.5 µM)	relative viability (TPCA-1 + AZD7762; first compound 0.04 µM)	relative viability (TPCA-1 + AZD7762; first compound 0.1265 µM)	relative viability (TPCA-1 + AZD7762; first compound 0.4 µM)	relative viability (TPCA-1 + AZD7762; first compound 1.265 µM)	relative viability (TPCA-1 + AZD7762; first compound 4 µM)	relative viability ([2]; first compound 0.005 µM)	relative viability ([2]; first compound 0.01581 µM)	relative viability ([2]; first compound 0.05 µM)	relative viability ([2]; first compound 0.1581 µM)	relative viability ([2]; first compound 0.5 µM)
NCI-H1437	0.866	0.782	0.889	0.88	0.834	0.885	0.949	0.952	0.747	0.698	1.19		1.14	1.03	0.906	0.343	0.349	0.241	0.292	0.16
EKVX	0.679	0.673	0.717	0.615	0.646	0.773	0.697	0.79	0.717	0.602	0.739		0.813	0.669	0.677	0.207	0.245	0.231	0.244	0.239
NCI-H1651	0.684	0.803	0.815	0.676	0.789	0.745	0.799	0.566	0.753	0.493	0.486	0.439	0.462	0.431	0.401	0.326	0.429	0.295	0.329	0.184
HCC-15	0.769	0.684	0.683	0.548	0.665	0.717	0.757	0.658	0.464	0.185	1.31	1.09	1.21	1.28	1.15	0.538	0.55	0.334	0.305	0.132
LCLC-103H	0.466	0.464	0.603	0.502	0.426	0.442	0.49	0.349	0.385	0.286	0.896	0.84	0.824	0.617	0.8	0.336	0.379	0.327	0.288	0.234
NCI-H23	0.689	0.683	0.717	0.572	0.579	0.592	0.719	0.596	0.418	0.345	0.338	0.261	0.21	0.235	0.223	0.835	0.756	0.762	0.813	0.457
NCI-H1792	0.84	0.619	0.754	0.694	0.67	0.95	0.698	0.83	0.776	0.424	0.623	0.62	0.596	0.483	0.363		0.423	0.3	0.179	0.178
NCI-H596	0.76	0.781	1.01	0.699	0.794	0.743	0.818	0.647	0.717	0.65	1.21	1.04	1.19	1.44	1.02	0.699	0.88	0.557	0.882	0.723
NCI-H460	0.743	0.81	0.747	0.515	0.605	0.498	0.859	0.359	0.229	0.204	0.676	0.684	0.738	0.622	0.731	0.583	0.533	0.401	0.307	0.0805
HCC-366	1.13	1.01	1.11	0.744	0.836	1.03	1.03	0.827	0.353	0.198		0.297	0.312	0.185	0.147	0.618	0.642	0.656	0.603	0.48
NCI-H2085	0.884	1.04	0.754	0.685	0.678	0.707	0.822	0.801	0.658	0.521		1.02	1.01	0.9	0.669	0.716	0.664	0.602	0.65	0.492
NCI-H522	0.793	0.715	0.841	0.518	0.727	0.816	0.791	0.679	0.709	0.572	0.898	0.904	0.857	0.853	0.894	0.722	0.614	0.634	0.552	0.525
PC-14	0.916	0.854	0.805	0.749	0.766	0.805	0.592	0.609	0.623	0.116	0.471	0.305	0.374	0.696	0.43	0.445	0.871	0.633	0.353	0.106
HOP-62	0.836	0.73	0.851	0.771	0.872	0.936	0.958	0.498	0.643	0.415	0.554	0.557	0.669	0.523	0.436	0.637	0.768	0.485	0.613	0.274
NCI-H2087	0.716	0.688	0.769	0.457	0.42	0.627	0.634	0.531	0.408	0.338	1.24	1.3	1.34	1.29	0.758	0.462	0.44	0.43	0.416	0.344
NCI-H1793	0.333	0.303	0.322	0.202	0.31	0.291	0.257	0.242	0.274	0.183	0.53	0.649	0.751	0.392	0.144	0.353	0.447	0.296	0.436	0.3

Source: the supplement of paper PMC10307832
